Tested on: recombinant rabies virus 1088 strain expressing Gaussia Luciferase (GLuc) (1088/GLuc)
Assay type: cell-based
Conditions: read-out: Anti-rabies activity

Structure (SMILES)	IC50 [µM]
CC(C)CN1C[C@H]2C[C@]3(C(=O)NCc4cccc5ccccc45)NC[C@H]2[C@H]1[C@H]3Cc1cccc2ccccc12 (relative stereo) [IF-778]	< 5
O=C(NCc1cccc2ccccc12)[C@@]12C[C@@H]3CN(Cc4ccc(O)cc4)[C@@H]([C@@H]3CN1)[C@H]2Cc1cccc2ccccc12 (relative stereo) [IF-779]	10 to 30
CC(C)NC(=O)[C@@]12C[C@@H]3CN(Cc4cccc5ccccc45)[C@@H]([C@@H]3CN1)[C@H]2CCc1ccccc1 (relative stereo) [IF-789]	10 to 30
CC(C)C[C@@H]1[C@@H]2[C@@H]3CN[C@@]1(C(=O)NCc1cccc4ccccc14)C[C@@H]3CN2Cc1ccccc1 (relative stereo) [IF-837]	5 to 10
CC(C)C[C@@H]1[C@@H]2[C@@H]3CN[C@@]1(C(=O)NCc1ccc(C(F)(F)F)cc1)C[C@@H]3CN2Cc1ccccc1 (relative stereo) [IF-838]	10 to 30
CC(C)CNC(=O)[C@]12N=C[C@@H]3C[C@H]1CN(Cc1ccccc1)[C@H]2[C@@H]3CC(C)C (relative stereo) [IIB-4, (3S*,3aS*,6R*,7R*,7aS*)-1-benzyl-N,7-diisobutyl-1,2,3,6,7,7a-hexahydro-3aH-3,6-methanopyrrolo[3,2-b]pyridine-3a-carboxamide]	5 to 10
Cc1ccc(CNC(=O)[C@@]23C[C@@H]4CN(CC(C)C)[C@@H]([C@@H]4C=N2)[C@H]3Cc2ccccc2)cc1 (relative stereo) [IIF-16]	10 to 30
CC(C)CCN1C[C@H]2C[C@]3(C(=O)NCc4cccc(Cl)c4)N=C[C@H]2[C@H]1[C@H]3Cc1ccccc1 (relative stereo) [IIF-325]	< 5
CC(C)CCN1C[C@H]2C[C@]3(C(=O)NCc4ccc(F)cc4)N=C[C@H]2[C@H]1[C@H]3Cc1ccccc1 (relative stereo) [IIF-327]	< 5
Cc1ccc(CNC(=O)[C@@]23C[C@@H]4CN(CCC(C)C)[C@@H]([C@@H]4C=N2)[C@H]3Cc2ccccc2)cc1 (relative stereo) [IIF-328]	< 5
COc1ccc(CNC(=O)[C@@]23C[C@@H]4CN(CCC(C)C)[C@@H]([C@@H]4C=N2)[C@H]3Cc2ccccc2)cc1 (relative stereo) [IIF-329]	< 5
COc1ccc(CNC(=O)[C@@]23C[C@@H]4CN(CC(C)C)[C@@H]([C@@H]4C=N2)[C@H]3CCc2ccccc2)cc1 (relative stereo) [IIF-332]	< 5
CC(C)CC1C2CNC3(C(=O)NCCc4ccccc4)C(C2)CN(CC(N)=O)C13 (centres unmarked) [IB-86]	10 to 30
NC(=O)CN1CC2CC3CNC2(C(=O)NCCc2ccccc2)C1C3Cc1ccccc1 (centres unmarked) [IB-87]	< 5
CCCCCCNC(=O)C12NCC3CC1CN(CC(N)=O)C2C3CCC(C)C (centres unmarked) [IB-108]	10 to 30
CCCCCCNC(=O)C12NCC3CC1CN(CC(N)=O)C2C3CCc1ccccc1 (centres unmarked) [IB-109]	10 to 30
CCCCCCNC(=O)C12NCC3CC1CN(CC(N)=O)C2C3Cc1cccc2ccccc12 (centres unmarked) [IB-110]	< 5
NC(=O)CN1CC2CC3CNC2(C(=O)NCc2ccccc2)C1C3CCc1ccccc1 (centres unmarked) [IB-130]	10 to 30
CC(C)CNC(=O)C12NCC3CC1CN(Cc1ccc(O)cc1)C2C3CCCNC(=N)N (centres unmarked) [IB-203]	10 to 30
N=C(N)NCCCC1C2CNC3(C(=O)NCc4ccc(F)cc4)C(C2)CN(Cc2ccc(O)cc2)C13 (centres unmarked) [IB-207]	10 to 30
O=C(O)CCNC(=O)C12NCC3CC1CN(Cc1ccc(F)cc1)C2C3Cc1cccc2ccccc12 (centres unmarked) [IB-384]	10 to 30
CC(C)CCN1CC2CC3CNC2(C(=O)NCc2ccc(F)cc2)C1C3CCC(=O)O (centres unmarked) [IB-386]	10 to 30
O=C(O)CCC1C2CNC3(C(=O)NCc4cccc5ccccc45)C(C2)CN(CC2CCCCC2)C13 (centres unmarked) [IB-389]	10 to 30
O=C(O)CCC1C2CNC3(C(=O)NCc4cccc5ccccc45)C(C2)CN(Cc2ccc(F)cc2)C13 (centres unmarked) [IB-390]	10 to 30
CC(C)CC1C2CNC3(C(=O)NCc4cccc5ccccc45)C(C2)CN(CCC(=O)O)C13 (centres unmarked) [IB-392]	10 to 30
O=C(O)CCN1CC2CC3CNC2(C(=O)NCc2ccc(F)cc2)C1C3Cc1ccccc1 (centres unmarked) [IB-394]	10 to 30

Structure (SMILES)	IC50 [µM]
CC(C)CCC1C2CNC3(C(=O)NCc4cccc5ccccc45)C(C2)CN(CCC(=O)O)C13 (centres unmarked) [IB-398]	10 to 30
CC(C)CCC1C2CNC3(C(=O)NCc4ccc(F)cc4)C(C2)CN(CCC(=O)O)C13 (centres unmarked) [IB-399]	10 to 30
CC(C)CCC1C2CNC3(C(=O)NCc4ccc(O)cc4)C(C2)CN(CCC(=O)O)C13 (centres unmarked) [IB-402]	10 to 30
O=C(O)CCNC(=O)C12NCC3CC1CN(Cc1ccc(O)cc1)C2C3Cc1cccc2ccccc12 (centres unmarked) [IB-410]	10 to 30
O=C(NCc1ccc(O)cc1)C12NCC3CC1CN(Cc1cccc4ccccc14)C2C3Cc1cccc2ccccc12 (centres unmarked) [IB-417]	10 to 30
O=C(O)CCC1C2CNC3(C(=O)NCc4cccc5ccccc45)C(C2)CN(CCO)C13 (centres unmarked) [IB-425]	10 to 30
CC(C)CCN1CC2CC3CNC2(C(=O)NCc2cccc4ccccc24)C1C3CO (centres unmarked) [IB-426]	< 5
CCCCCCNC(=O)C12NCC3CC1CN(CCO)C2C3Cc1ccccc1 (centres unmarked) [IB-476]	< 5
CCCCCCNC(=O)C12NCC3CC1CN(CCO)C2C3CC(C)C (centres unmarked) [IB-477]	< 5
CCCCCCNC(=O)C12NCC3CC1CN(CCO)C2C3Cc1ccc(O)cc1 (centres unmarked) [IB-478]	10 to 30
O=C(NCc1ccc(F)cc1)C12NCC3CC1CN(CCO)C2C3Cc1ccccc1 (centres unmarked) [IB-479]	10 to 30
CC(C)CCN1CC2CC3CNC2(C(=O)NCc2ccc(F)cc2)C1C3Cc1ccc(O)cc1 (centres unmarked) [IB-481]	< 5
O=C(NCCc1ccccc1)C12NCC3CC1CN(CC1CCCCC1)C2C3Cc1ccccc1 (centres unmarked) [IB-484]	< 5
CCCCCCNC(=O)C12NCC3CC1CN(CCO)C2C3CCC(C)C (centres unmarked) [IB-490]	< 5
O=C(NCc1ccc(F)cc1)C12NCC3CC1CN(CCO)C2C3CCc1ccccc1 (centres unmarked) [IB-492]	< 5
CC(C)CC1C2CNC3(C(=O)NCCc4ccccc4)C(C2)CN(CC(C)C)C13 (centres unmarked) [IB-495]	< 5
CC(C)CN1CC2CC3CNC2(C(=O)NCc2ccc(F)cc2)C1C3Cc1ccc(O)cc1 (centres unmarked) [IB-498]	< 5
CC(C)CC1C2CNC3(C(=O)NCc4ccc(F)cc4)C(C2)CN(Cc2ccc(O)cc2)C13 (centres unmarked) [IB-499]	< 5
CC(C)CCC1C2CNC3(C(=O)NC(C)C)C(C2)CN(Cc2ccc(O)cc2)C13 (centres unmarked) [IB-501]	< 5
CC(C)NC(=O)C12NCC3CC1CN(Cc1ccc(O)cc1)C2C3Cc1cccc2ccccc12 (centres unmarked) [IB-502]	< 5
CC(C)CCN1CC2CC3CNC2(C(=O)NCc2ccccc2)C1C3CCC(=O)O (centres unmarked) [IB-505]	10 to 30
CC(C)CNC(=O)C12NCC3CC1CN(CCc1ccccc1)C2C3CCC(=O)O (centres unmarked) [IB-508]	10 to 30
CC(C)CNC(=O)C12NCC3CC1CN(CC1CCCCC1)C2C3CCC(=O)O (centres unmarked) [IB-510]	10 to 30
O=C(O)CCN1CC2CC3CNC2(C(=O)NCc2ccc(O)cc2)C1C3CCc1ccccc1 (centres unmarked) [IB-515]	10 to 30
O=C(O)CCN1CC2CC3CNC2(C(=O)NCc2ccc(O)cc2)C1C3Cc1cccc2ccccc12 (centres unmarked) [IB-516]	10 to 30
CC(C)CC1C2CNC3(C(=O)NCCC(N)=O)C(C2)CN(Cc2cccc4ccccc24)C13 (centres unmarked) [IB-520]	< 5

Structure (SMILES)	IC50 [µM]
NC(=O)CCNC(=O)C12NCC3CC1CN(Cc1cccc4ccccc14)C2C3Cc1ccc(O)cc1 (centres unmarked) [IB-521]	10 to 30
NC(=O)CCNC(=O)C12NCC3CC1CN(CCc1ccccc1)C2C3Cc1ccccc1 (centres unmarked) [IB-707]	< 5
CC(C)CC1C2CNC3(C(=O)NCCC(N)=O)C(C2)CN(CCc2ccccc2)C13 (centres unmarked) [IB-708]	< 5
NC(=O)CCNC(=O)C12NCC3CC1CN(CC1CCCCC1)C2C3CCc1ccccc1 (centres unmarked) [IB-710]	< 5
NC(=O)CCNC(=O)C12NCC3CC1CN(Cc1ccc(F)cc1)C2C3Cc1ccccc1 (centres unmarked) [IB-712]	< 5
CC(C)CCNC(=O)C12NCC3CC1CN(CCO)C2C3Cc1ccccc1 (centres unmarked) [IB-714]	< 5
CC(C)CC1C2CNC3(C(=O)NCCc4ccccc4)C(C2)CN(Cc2ccc(F)cc2)C13 (centres unmarked) [IB-725]	< 5
CC(C)CCNC(=O)C12NCC3CC1CN(CCO)C2C3Cc1cccc2ccccc12 (centres unmarked) [IB-727]	< 5
NC(=O)CCNC(=O)C12NCC3CC1CN(Cc1ccccc1)C2C3Cc1ccccc1 (centres unmarked) [IB-734]	10 to 30
CC(C)CN1CC2CC3CNC2(C(=O)NCCC(N)=O)C1C3Cc1cccc2ccccc12 (centres unmarked) [IB-737]	10 to 30
CC(C)CCNC(=O)C12NCC3CC1CN(Cc1ccc(O)cc1)C2C3CC(C)C (centres unmarked) [IB-739]	10 to 30
NC(=O)CCNC(=O)C12NCC3CC1CN(Cc1ccc(O)cc1)C2C3Cc1cccc2ccccc12 (centres unmarked) [IB-743]	< 5
CC(C)CCN1CC2CC3CNC2(C(=O)NCc2ccccc2)C1C3Cc1ccc(O)cc1 (centres unmarked) [IB-749]	10 to 30
O=C(NCc1cccc2ccccc12)C12NCC3CC1CN(Cc1cccc4ccccc14)C2C3CCc1ccccc1 (centres unmarked) [IB-804]	< 5
NC(=O)CCNC(=O)C12NCC3CC1CN(Cc1ccccc1)C2C3Cc1cccc2ccccc12 (centres unmarked) [IB-813]	< 5
O=C(NCc1ccc(F)cc1)C12NCC3CC1CN(CCO)C2C3Cc1cccc2ccccc12 (centres unmarked) [IB-831]	< 5
CC(C)CC1C2CNC3(C(=O)NCc4ccccc4)C(C2)CN(Cc2ccc(Cl)cc2)C13 (centres unmarked) [IB-864]	5 to 10
CC(C)CC1C2CNC3(C(=O)NCc4ccccc4)C(C2)CN(Cc2cccc(Cl)c2)C13 (centres unmarked) [IB-865]	5 to 10
COc1ccc(CN2CC3CC4CNC3(C(=O)NCc3ccccc3)C2C4CC(C)C)cc1 (centres unmarked) [IB-866]	5 to 10
Cc1ccc(CN2CC3CC4CNC3(C(=O)NCc3ccccc3)C2C4CC(C)C)cc1 (centres unmarked) [IB-867]	5 to 10
CC(C)CCNC(=O)C12NCC3CC1CN(CC(C)C)C2C3Cc1ccccc1 (centres unmarked) [IB-870]	10 to 30
CC(C)CC1C2CNC3(C(=O)NCc4ccc(Cl)cc4)C(C2)CN(CC(C)C)C13 (centres unmarked) [IB-871]	10 to 30
CC(C)CC1C2CNC3(C(=O)NCc4ccccc4)C(C2)CN(Cc2ccc(N(C)C)cc2)C13 (centres unmarked) [IB-873]	5 to 10
CC(C)CC1C2CNC3(C(=O)NCc4ccccc4)C(C2)CN(Cc2ccc(C(C)(C)C)cc2)C13 (centres unmarked) [IB-874]	5 to 10
CC(C)CCC1C2CNC3(C(=O)NCc4ccccc4)C(C2)CN(CC(C)C)C13 (centres unmarked) [IB-875]	10 to 30
CC(C)CCN1CC2CC3CNC2(C(=O)NCc2ccccc2)C1C3CC(C)C (centres unmarked) [IB-876]	10 to 30

Same assay, conditions: read-out: IC50

Structure (SMILES)	IC50 [µM]
CC(C)CNC(=O)[C@]12N=C[C@@H]3C[C@H]1CN(Cc1ccccc1)[C@H]2[C@@H]3CC(C)C (relative stereo) [IIB-4, (3S*,3aS*,6R*,7R*,7aS*)-1-benzyl-N,7-diisobutyl-1,2,3,6,7,7a-hexahydro-3aH-3,6-methanopyrrolo[3,2-b]pyridine-3a-carboxamide]	8.9
Cc1ccc(CNC(=O)[C@@]23C[C@@H]4CN(CC(C)C)[C@@H]([C@@H]4C=N2)[C@H]3Cc2ccccc2)cc1 (relative stereo) [IIF-16]	28.7
